The supplement of paper PMC10290057
Counter-ions that a name gives are not always drawn.

System: HCT116
Assay: efficacy (fitted maximal change in viability relative to DMSO control); higher = less cytotoxic (negative = loss of viability)
Conditions: 48 h
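Also: Luminescence-based viability readout, five doses per compound, normalized against on-plate DMSO and empty-well controls, followed by dose-response curve fitting for every drug.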

SMILES | efficacy [%]
C[C@]\12CCC(=O)\C=C1CC[C@H]3[C@@H]4CC[C@](O)(C(=O)CO)[C@@]4(C)C[C@H](O)[C@H]23 [Hydrocortisone] | -23
CC(=O)OCC(=O)[C@@]12OC(C)(C)O[C@@H]1C[C@H]3[C@@H]4C[C@H](F)C/5=C/C(=O)/C=C\[C@]5(C)[C@@]4(F)[C@@H](O)C[C@]23C [Fluocinonide] | -12.9
COC(=O)N1CCN(Cc2cccc(NC(=O)Nc3ccc(C)nc3)c2F)CC1 [Omecamtiv mecarbil] | -28.6
CNC(=O)[C@H](Cc1ccccc1)NC(=O)[C@H](CC(C)C)[C@H](CSc1cccs1)C(=O)NO [Batimastat] | -46.2
OC[C@H]1O[C@H]([C@H](O)[C@@H]1O)N2/C=C\C=N/C2=O [Zebularine] | -11.7
CN1CCCN=C1/C=C/c1cccs1 [PYRANTEL PAMOATE] | -47
COc1nc(-c2ccc3c(c2)OCO3)n(-c2ccc(NC(=O)CSc3ccccc3)cc2)n1 [Secin H3] | -15.5
O=C(NC[C@H]1CN(c2ccc(N3CCOCC3=O)cc2)C(=O)O1)c1ccc(Cl)s1 [Rivaroxaban] | -24.9
C[C@H](CCC(=O)O)[C@H]1CCC2C3C[C@H](O)[C@@H]4C[C@H](O)CC[C@]4(C)C3CC[C@@]21C (stereo partly drawn) [Hyodeoxycholic acid] | 5.2
C[C@H]1CC2[C@@H]3CCC/4=C/C(=O)/C=C\[C@]4(C)[C@@]3(F)[C@@H](O)C[C@]2(C)[C@@]1(O)C(=O)CO (stereo partly drawn) [BETAMETHASONE] | -11.5
Cc1nc(-c2ccc(OCC(C)C)c(C#N)c2)sc1C(=O)O [Febuxostat] | 3.94
C=C[C@H]1CN2CCC1C[C@@H]2C(O)c1ccnc2ccc(OC)cc12 (stereo partly drawn) [Quinidine] | -25.6
OC[C@@H](O)[C@@H](O)[C@H](O)[C@@H](O)CO [Mannitol] | 13
O=C([O-])C(O)Cc1ccc(O)c(O)c1 (stereo not drawn) [Sodium Danshensu] | -9.88
CC(=O)O/N=C1\C(=O)N(Cc2cc(Cl)ccc2Cl)c2ccc(Cl)cc21 | -71.8
CCC(=O)NCC[C@@H]1CCc2ccc3c(c21)CCO3 [Ramelteon] | -25.2
c1cc(CN2CCCNCCNCCCNCC2)ccc1CN1CCCNCCNCCCNCC1 [Plerixafor hydrochloride] | -8.04
CNNCc1ccc(C(=O)NC(C)C)cc1 [Procarbazine hydrochloride] | -10.4
O=C1NC(=O)/C(=C/c2cccc(C(F)(F)F)c2)S1 [SMI-4a] | -22.5

SMILES | efficacy [%]
C[C@@H](O)[C@@H]1NC(=O)[C@H](CCCCN)NC(=O)[C@@H](Cc2c[nH]c3ccccc23)NC(=O)[C@H](Cc2ccccc2)NC(=O)[C@@H](NC(=O)[C@H](N)Cc2ccccc2)CSSC[C@@H](C(=O)N[C@H](CO)[C@@H](C)O)NC1=O [Octreotide] | 9.15
CC1(C)O[C@@H]2C[C@H]3[C@@H]4C[C@H](F)C/5=C/C(=O)/C=C\[C@]5(C)[C@@]4(F)[C@@H](O)C[C@]3(C)[C@@]2(O1)C(=O)CO [Fluocinolone acetonide] | -10.6
C[N]1N=CN=C1[C@@H]2[C@H](NC3=CC(=CC4=C3\C2=N/NC4=O)F)C5=CC=C(F)C=C5 [BMN-673] | -16.8
COc1ccc2c(c1)CC[C@@H](CN(C)CC(=O)O)[C@H]2c1ccccc1 | -15.5
Cc1cccc(C)c1NC(=O)CN1CCCC1=O [Nefiracetam] | -20.6
CCOC(=O)c1c(/C(C#N)=C\N)c2ccc(Cl)c(Cl)c2n1C [KH-CB19] | -9.36
CCC(=O)[N-]S(=O)(=O)c1ccc(-c2c(-c3ccccc3)noc2C)cc1.[Na+] [Parecoxib sodium] | -9.88
CC(C)[C@H]1C(=O)N[C@H](CO)Cc2c[nH]c3cccc(c23)N1C [(-)-Indolactam V] | 9.83
OC1=CC2=C(C=C1)C(=O)\C(=C(O2)\C3=CC(=C(O)C=C3)O)O [Fisetin] | -56.3
O=C(O)CNC(=O)c1nc(Cl)c2ccccc2c1O [FG-2216] | -7.52
CN1CCN(CC1)C\2=C\3/C=C(/C)SC3=N/C4=CC=CC=C4N2 | -17.1
CCCCNc1cc(C(=O)O)cc([S+](N)(=O)[O-])c1Oc1ccccc1 [Bumetanide] | -7.8
COCC1(CO)C(=O)C2CCN1CC2 (stereo not drawn) [APR-246] | -7.36
Oc1ccc2ccccc2c1SSc1c(O)ccc2ccccc12 [IPA-3] | -115
C[C@@H]1Cc2c([nH]c3ccccc23)[C@@H](c2c(F)cc(/C=C/C(=O)O)cc2F)N1CC(C)(C)F [AZD-9496 maleate] | -13.1
CO[C@H]1/C=C/O[C@@]2(C)Oc3c(C)c(O)c4c(O)c(c(/C=N\N5CCN(C6CCCC6)CC5)c(O)c4c3C2=O)NC(=O)/C(C)=C\C=C\[C@H](C)[C@H](O)[C@@H](C)[C@@H](O)[C@@H](C)[C@H](OC(C)=O)[C@@H]1C [Rifapentine] | -59.1
CCCN[S+](=O)([O-])Nc1ncnc(OCCOc2ncc(Br)cn2)c1-c1ccc(Br)cc1 [Macitentan] | -63.7
CCN1\C=C(\C(O)=O)C(=O)C2=C1C=C(N3CCNCC3)C(=C2)F [Norfloxacin] | 9.53
NC(=O)c1ncn([C@@H]2O[C@H](CO)[C@@H](O)[C@H]2O)c1O [Mizoribine] | 18
